{
  "source": "patent US20040235019A1",
  "about": "“Diagnostics and therapeutics for the gene expression signature of PPAR-gamma receptor ligand” (Agouron Pharmaceuticals, Inc., priority 2003, published 2004)",
  "key": {"3T3-L1 cells": {"system": "3T3-L1 cells", "assay": "Gene profile of 3T3-L1 cells treated with Rosiglitazone after PPARγ1 antisense knockdown", "type": "cell-based, murine", "settings": "antisense 72 hours", "protocol": "3T3-L1 cells were treated for 72 hours with an antisense construct whose nucleic acid sequence was complementary to PPARγ1 and treated with Rosiglitazone. As a separate control, 3T3-L1 were cells treated with the antisense construct, but without Rosiglitazone. Gene expression levels were determined using Affymetix microarray analysis. Following the incubation, RNA was extracted from the cells using Trizol (Invitrogen) followed by cleanup using an RNeasy kit (Qiagen) including DNase I treatment. Probes from each of these cell populations were prepared by reverse transcription-polymerase chain reaction (RT-PCR) and subsequently biotin labeled by in vitro transcription using the BioArray High Yield RNA Transcript Labeling Kit (Enzo). The probes were then hybridized to U74Aver2 Affymetrix gene chips. The hybridization was conducted as follows The hybridization was for 16 hours at 45° C. and 60 RPM in a rotisserie box."}, "[1]": {"settings": "patients; personal communication (Heidi Camp, Pfizer Inc); cited from earlier work"}},
  "data": [
    {"smiles": "CN(CCOc1ccc(CC2SC(=O)NC2=O)cc1)c1ccccn1", "note": "(centres unmarked) [Rosiglitazone]", "values": [
      {"measurement": "genes of Tables I and II also up- or down-regulated by Rosiglitazone in cells treated with PPARγ1 antisense nucleic acid", "setting": "3T3-L1 cells", "result": 91, "unit": "%"}
    ]},
    {"smiles": "Cc1oc(-c2ccccc2)nc1CCOc1ccc(C[C@H](Nc2ccccc2C(=O)c2ccccc2)C(=O)O)cc1", "note": "[Farglitazar]", "values": [
      {"measurement": "incidence of edema clinically", "setting": "[1]", "result": "most frequent incidence of edema clinically"}
    ]}
  ]
}
